Test results reported in patent US8529949B2, “Pharmaceutical tablets of crystalline type II aripiprazole” (Synthon BV, priority 2005, dated 2013).
Read-outs that look alike come from different tables or passages of the source.

What was measured:
[1] = cited from earlier work
[2] = Hygroscopicity (water uptake) of crystalline aripiprazole forms; assay type: physicochemical; settings: small particle population (d90 8-50 microns), unmilled

## O=C1CCc2ccc(OCCCCN3CCN(c4cccc(Cl)c4Cl)CC3)cc2N1 [Type I aripiprazole, 7-[4-[4-(2,3-dichlorophenyl)-1-piperazinyl]butoxy]-3,4-dihydrocarbostyril]
[1]; as taught by WO 03/26659
  hygroscopicity: significantly hygroscopic

## O=C1CCc2ccc(OCCCCN3CCN(c4cccc(Cl)c4Cl)CC3)cc2N1 [Anhydrous Form B, 7-[4-[4-(2,3-dichlorophenyl)-1-piperazinyl]butoxy]-3,4-dihydrocarbostyril]
[1]; in 24 hours, per WO 03/26659
  water uptake (hygroscopicity): less than 0.4%

## O=C1CCc2ccc(OCCCCN3CCN(c4cccc(Cl)c4Cl)CC3)cc2N1 [aripiprazole Type II, 7-[4-[4-(2,3-dichlorophenyl)-1-piperazinyl]butoxy]-3,4-dihydrocarbostyril]
[2]
  hygroscopicity: not significantly hygroscopic and/or is non-hygroscopic
